30 compounds from PubChem BioAssay AID330 (DTP/NCI, 2004) can be followed below.

Molecules are shown by their SMILES. Where “and” joins values, the source holds several entries; their conditions need not be identical. Equal entries are not always repeated. Inconclusive results and toxic doses are left out.

This assay has as its system P388 leukemia ip, CD2F1 mice, survival T/C. Nature of the assay: NCI In Vivo Anticancer Drug Screen. Data for tumor model P388 Leukemia (intraperitoneal) in CD2F1 (CDF1) mice. The note with it: endpoint: median survival time, higher = longer survival. In outline:
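Mice carrying the transplanted tumor received test compound or vehicle. Survival was recorded in each group, and the value is the treated-group measurement divided by that of the vehicle-treated control group.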

The mark [1] stands for this setting: dose: 25.0 mg/kg/injection, schedule: Q01DX009 (ip), vehicle: saline with Tween-80.
Where [2] appears, read: dose: 50.0 mg/kg/injection, schedule: Q01DX009 (ip), vehicle: saline with Tween-80.
[3] abbreviates: dose: 100.0 mg/kg/injection, schedule: Q01DX009 (ip), vehicle: saline with Tween-80.
The mark [4] stands for this setting: dose: 50.0 mg/kg/injection, schedule: Q01DX009 (ip), vehicle: saline.
Where [5] appears, read: dose: 100.0 mg/kg/injection, schedule: Q01DX009 (ip), vehicle: saline.
Setting [6] is: dose: 200.0 mg/kg/injection, schedule: Q01DX009 (ip), vehicle: saline.
Setting [7] is: dose: 50.0 mg/kg/injection, schedule: Q01DX005 (ip), vehicle: Klucel (hydroxypropylcellulose) (HPC).
Setting [8] is: dose: 100.0 mg/kg/injection, schedule: Q01DX005 (ip), vehicle: Klucel (hydroxypropylcellulose) (HPC).
Where [9] appears, read: dose: 200.0 mg/kg/injection, schedule: Q01DX005 (ip), vehicle: Klucel (hydroxypropylcellulose) (HPC).
Where [10] appears, read: dose: 50.0 mg/kg/injection, schedule: Q01DX009 (ip), vehicle: Klucel (hydroxypropylcellulose) (HPC).
Setting [11] is: dose: 100.0 mg/kg/injection, schedule: Q01DX009 (ip), vehicle: Klucel (hydroxypropylcellulose) (HPC).
[12] abbreviates: dose: 50.0 mg/kg/injection, schedule: Q01DX005 (ip), vehicle: saline with Tween-80.
Where [13] appears, read: dose: 100.0 mg/kg/injection, schedule: Q01DX005 (ip), vehicle: saline with Tween-80.
Setting [14] is: dose: 200.0 mg/kg/injection, schedule: Q01DX005 (ip), vehicle: saline with Tween-80.
Setting [15] is: dose: 200.0 mg/kg/injection, schedule: Q01DX009 (ip), vehicle: saline with Tween-80.
The mark [16] stands for this setting: dose: 60.0 mg/kg/injection, schedule: Q01DX005 (ip), vehicle: Klucel (hydroxypropylcellulose) (HPC).
Where [17] appears, read: dose: 120.0 mg/kg/injection, schedule: Q01DX005 (ip), vehicle: Klucel (hydroxypropylcellulose) (HPC).
The mark [18] stands for this setting: dose: 240.0 mg/kg/injection, schedule: Q01DX005 (ip), vehicle: Klucel (hydroxypropylcellulose) (HPC).

For `COc1cc2ccnc(C=O)c2cc1OC`, the T/C by setting is: under setting [1], 110 % of control; under setting [2], 110 % of control; under setting [3], 107 % of control.
Consider `COC1OC(COS(C)(=O)=O)C(O)C(O)C1OS(C)(=O)=O` (stereo unspecified), for which the T/C under setting [4] was 110 % of control, the T/C under setting [5] is 106 % of control and the T/C under setting [6] was 106 % of control.
Take `COc1ccc2c3c([nH]c2c1N)C(C)NCC3` (stereo unspecified): the T/C is 102 % of control (dose: 12.5 mg/kg/injection, schedule: Q01DX005 (ip), vehicle: Klucel (hydroxypropylcellulose) (HPC)); 96 % of control (dose: 25.0 mg/kg/injection, schedule: Q01DX005 (ip), vehicle: Klucel (hydroxypropylcellulose) (HPC)); 104 % of control under setting [7]; 104 % of control under setting [8].
`CN1C2CCC1CC(OC(=O)C(CO)c1ccccc1)C2` (stereo unspecified): the T/C (dose: 12.5 mg/kg/injection, schedule: Q01DX009 (ip), vehicle: saline with Tween-80) is 105 % of control and 95 % of control; the T/C under setting [1] was 100 % of control and 111 % of control; the T/C under setting [2] is 103 % of control and 92 % of control; the T/C under setting [3] was 100 % of control and 95 % of control; the T/C (dose: 150.0 mg/kg/injection, schedule: Q01DX009 (ip), vehicle: saline with Tween-80) is 112 % of control and 95 % of control.
Take `CC1CNC(=O)NC1=O` (stereo unspecified): the T/C was 94 % of control under setting [2] and 86 % of control under setting [3].
As to `CC1=NN(c2ccccc2)[As]2ON=C(c3ccc(Cl)cc3)C12` (stereo unspecified), the T/C is, setting by setting: under setting [7], 102 % of control; under setting [8], 103 % of control; under setting [9], 108 % of control.
As to `COCCO[Si](OCCOC)(OCCOC)c1ccccc1`, the T/C is 101 % of control under setting [10]; 107 % of control under setting [11]; 117 % of control (dose: 200.0 mg/kg/injection, schedule: Q01DX009 (ip), vehicle: Klucel (hydroxypropylcellulose) (HPC)).
With `OCC1OC2OCCOC2OC1CO` (stereo unspecified), the T/C by setting is: (dose: 100.0 mg/kg/injection, schedule: Q01DX001 (ip), vehicle: saline) 102 % of control; (dose: 200.0 mg/kg/injection, schedule: Q01DX001 (ip), vehicle: saline) 96 % of control; (dose: 400.0 mg/kg/injection, schedule: Q01DX001 (ip), vehicle: saline) 102 % of control.
As for `COC(=O)C1=CN(C(C)=O)C=C(C(=O)OC)C1c1ccccc1`, the T/C was 102 % of control under setting [12], 93 % of control under setting [13] and 92 % of control under setting [14].
On to `CN1C(=O)Cn2c(nn(CCN3CCOCC3)c(=O)c2=O)-c2cc(Cl)ccc21`, for which the T/C under setting [4] is 99 % of control, the T/C under setting [5] was 102 % of control and the T/C under setting [6] was 105 % of control.
Consider `Nc1ccccc1SC1CC(=O)N(c2ccccc2Cl)C1=O` (stereo unspecified), for which the T/C is 90 % of control under setting [2]; 90 % of control and 95 % of control under setting [3]; 90 % of control (dose: 100.0 mg/kg/injection, schedule: Q04DX003 (ip), vehicle: saline with Tween-80); 95 % of control under setting [15]; 90 % of control (dose: 200.0 mg/kg/injection, schedule: Q04DX003 (ip), vehicle: saline with Tween-80); 95 % of control (dose: 400.0 mg/kg/injection, schedule: Q04DX003 (ip), vehicle: saline with Tween-80).
With `CCCOC1=NC2=NC(OCCC)=NC3=C(Br)C=C(Br)C(=N1)N23`, the T/C reads like this: under setting [7], 95 % of control; under setting [8], 94 % of control; under setting [9], 91 % of control.
As for `Nc1nc(SCC(=O)O)[nH]c(=O)c1NS(=O)(=O)c1ccccc1[N+](=O)[O-]`, the T/C is 90 % of control under setting [16], 91 % of control under setting [17] and 96 % of control under setting [18].
Take `c1ccc2cc(SCCCN3CCOCC3)ccc2c1`: the T/C is 100 % of control (dose: 50.0 mg/kg/injection, schedule: Q01DX009 (ip), vehicle: saline sonified); 104 % of control (dose: 100.0 mg/kg/injection, schedule: Q01DX009 (ip), vehicle: saline sonified); 100 % of control (dose: 200.0 mg/kg/injection, schedule: Q01DX009 (ip), vehicle: saline sonified).
For the compound `CC(C)(CCl)C(=O)O`, the T/C under setting [4] was 95 % of control.
As for `COc1cc2cc(c1Cl)N1CC(=O)C(C)(O)C(=O)N(C)C(C)C(=O)OC(CC1=O)C1(C)OC1C(C)C1CC(O)(NC(=O)O1)C(OC)/C=C\C=C(\C)C2OC` (stereo unspecified), the T/C by setting is: (dose: 2.0 micrograms/kg/injection, schedule: Q01DX009 (ip), vehicle: distilled water + alcohol) 151 % of control; (dose: 4.0 micrograms/kg/injection, schedule: Q01DX009 (ip), vehicle: distilled water + alcohol) 153 % of control and 168 % of control; (dose: 16.0 micrograms/kg/injection, schedule: Q01DX009 (ip), vehicle: distilled water + alcohol) 210 % of control.
As for `CN(C)c1nc(=[N+](C)C)ss1`, the T/C is, setting by setting: under setting [2], 90 % of control; under setting [3], 100 % of control; under setting [15], 113 % of control.
For the compound `COC(=O)C/C(=C/C=C1/C(=O)ON=C1C)c1c(C)[nH]oc1=O`, the T/C is, setting by setting: (dose: 100.0 mg/kg/injection, schedule: Q04DX003 (ip), vehicle: saline) 100 % of control; (dose: 200.0 mg/kg/injection, schedule: Q04DX003 (ip), vehicle: saline) 100 % of control; (dose: 400.0 mg/kg/injection, schedule: Q04DX003 (ip), vehicle: saline) 100 % of control.
In the case of `O=S(=O)(O)c1ccc(N=Nc2c(S(=O)(=O)O)cc3cc(S(=O)(=O)O)cc(O)c3c2O)cc1`, the T/C was 93 % of control under setting [4], 99 % of control under setting [5] and 106 % of control under setting [6].
Take `O=C1CSCN1N1CSCC1=O`: the T/C runs as follows: under setting [12], 101 % of control; under setting [13], 102 % of control; under setting [14], 98 % of control.
Take `CCc1ccc(O)c(CN2CCN(Cc3cc(CC)ccc3O)CC2)c1`: the T/C is 89 % of control (dose: 15.0 mg/kg/injection, schedule: Q01DX005 (ip), vehicle: saline with Tween-80) and 86 % of control (dose: 30.0 mg/kg/injection, schedule: Q01DX005 (ip), vehicle: saline with Tween-80).
For the compound `CC(=O)OC1SC(OC(C)=O)C2OC(=O)OC12` (stereo unspecified), the T/C runs as follows: under setting [2], 101 % of control; under setting [3], 108 % of control; under setting [15], 100 % of control.
With `CSc1nnc2n(N)cnn12`, the T/C runs as follows: (dose: 100.0 mg/kg/injection, schedule: Q04DX002 (ip), vehicle: water) 107 % of control; (dose: 200.0 mg/kg/injection, schedule: Q04DX002 (ip), vehicle: water) 106 % of control; (dose: 400.0 mg/kg/injection, schedule: Q04DX002 (ip), vehicle: water) 106 % of control.
For `CCOC(=O)COc1ccc2c(=O)c(C)c(-c3ccccc3)oc2c1`, the T/C is 97 % of control under setting [4], 101 % of control under setting [5] and 97 % of control under setting [6].
As to `O=C(NC(Cc1c[nH]c2ccccc12)C(=O)NC(Cc1ccccc1)C(=O)O)OCc1ccccc1` (stereo unspecified), the T/C is, setting by setting: under setting [7], 103 % of control and 93 % of control; under setting [8], 106 % of control; under setting [9], 89 % of control.
Regarding `C[n+]1ccc(C[n+]2ccccc2)c2ccccc21`, the T/C (dose: 50.0 mg/kg/injection, schedule: Q01DX005 (ip), vehicle: saline) is 104 % of control; the T/C (dose: 100.0 mg/kg/injection, schedule: Q01DX005 (ip), vehicle: saline) was 100 % of control; the T/C (dose: 200.0 mg/kg/injection, schedule: Q01DX005 (ip), vehicle: saline) was 96 % of control.
Consider `OC[C@H]1N[C@H](CO)[C@@H](O)[C@H]1O`, for which the T/C by setting is: (dose: 60.0 mg/kg/injection, schedule: Q01DX005 (ip), vehicle: saline) 100 % of control; (dose: 120.0 mg/kg/injection, schedule: Q01DX005 (ip), vehicle: saline) 99 % of control; (dose: 240.0 mg/kg/injection, schedule: Q01DX005 (ip), vehicle: saline) 103 % of control.
With `O=C(Nc1nc(-c2ccccc2)cs1)OCC(Cl)(Cl)Cl`, the T/C is 93 % of control under setting [12], 91 % of control under setting [13] and 96 % of control under setting [14].
In the case of `C/C(C=O)=C\c1ccc(N(C)C)cc1`, the T/C was 101 % of control under setting [16], 101 % of control under setting [17] and 100 % of control under setting [18].
On to `CCCCC1NNC(CCCC)NN1` (stereo unspecified), for which the T/C by setting is: under setting [10], 104 % of control; under setting [11], 104 % of control.
